Active and inactive are the calls of the source.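 The calls were made as follows: active = compounds giving half or more protection of infected cells from virus-caused growth loss, again on retest; inactive = the rest.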
Test system: CEM cells HIV-1 protection, formazan growth assay
Assay: NCI AIDS Antiviral Assay
Conditions: for IC50: measured here: growth of uninfected CEM cells
Procedure, shortened: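 Protection of CEM cells against HIV-1 was scored from cell growth (soluble formazan) across five concentrations, with parallel uninfected cells. Lack of protection may reflect toxicity.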

Compound | EC50 | IC50 | outcome
Cc1sc2c(c1C)c(=O)[nH]c1c(C#N)c(-c3ccc(Cl)cc3)cn12 | 186 µM | > 200 µM | –
O=C1/C(=C\c2ccccc2)CN(C(=O)CCN2CCCCC2)C/C1=C/c1ccccc1 | > 151 µM | 0.794 µM | –
COC(=O)[C@H](Cc1ccccc1)NC(=O)OCC1OC(n2cc(C)c(=O)[nH]c2=O)CC1N=[N+]=[N-] (stereo partly drawn) | > 200 µM | > 200 µM | –
C/C(=N\N=C(N)N)c1ccccc1 | – | – | inactive
N#C/C(=C\c1ccccc1)c1cccc(I)c1 | > 200 µM | 55 µM | –
C[n+]1c2ccccc2c(CNC(CS)C(=O)O)c2ccccc21 (stereo not drawn) | – | – | inactive
O=C1NNC(=O)C2C3C=CC(O3)C12 (stereo not drawn) | > 200 µM | > 200 µM | –
CCOc1ccc(/C=C(\Cl)c2ccc(OC)cc2)cc1 | > 200 µM | > 200 µM | –
COc1cc(CCC(=O)CC(=O)CCc2ccc(O)c(OC)c2)ccc1O | > 200 µM | 34.7 µM | –
N#Cc1ccccc1NC(=O)C(=O)C(C(=O)c1ccncc1)C1OC(=O)c2ccccc21 (stereo not drawn) | > 589 µM | > 589 µM | –
O=[N+]([O-])c1ccccc1Sc1ccccc1[N+](=O)[O-] | > 7.94 µM | – | –
COc1cccc(/C(CC(O)(C(F)(F)F)C(F)(F)F)=N\N(C)C)c1 | > 200 µM | > 200 µM | –
Clc1ccccc1C=NCC1CCC(CN=Cc2ccccc2Cl)CC1 (stereo not drawn) | > 200 µM | 9.12 µM | –
CCN(CC)CCNc1ccc2ncn3c4c(OC)ccc(OC)c4c(=O)c1c23 | > 50.1 µM | 1.23 µM | –
C/C(=N/NS(=O)(=O)c1ccc(N)cc1)c1ccccc1O | > 117 µM | > 117 µM | –
CN1CCCc2cc(/C=C\c3ccnc4ccccc34)ccc21 | 0.0631 µM | 4.37 µM | –
Nc1cc(OCc2ccccc2)c(OCc2ccccc2)cc1C=O | > 200 µM | 18.6 µM | –
COc1cccc(N2C(Cl)C(=O)C2c2c[nH]c3ccccc23)c1 (stereo not drawn) | > 79.4 µM | > 79.4 µM | –
COc1ccc(C2c3cc4c(cc3OC(NNC(N)=O)C2C)OCO4)cc1 (stereo not drawn) | > 200 µM | 3.89 µM | –
C[N+](C)(C)CCS(=O)(=O)[O-] | > 200 µM | > 200 µM | –
O=C1c2ccccc2C(=O)c2sc(Nc3ccc([N+](=O)[O-])cc3)nc21 | > 10.7 µM | > 10.7 µM | –
NC1=NC(=O)C(CC(=O)Nc2ccc([N+](=O)[O-])cc2[N+](=O)[O-])S1 (stereo not drawn) | > 75.9 µM | > 75.9 µM | –
CC(=O)OC[C@@H]1[C@H]2CC(=O)O[C@H]2C[C@H]1OC(C)=O | – | – | inactive

Compound | EC50 | IC50 | outcome
O=C1COC(c2ccccc2O)=NN1CCN1CCOCC1 | > 105 µM | > 105 µM | –
O=[N+]([O-])c1cccc(C=NC23CC4CC(CC(C4)C2)C3)c1 | > 66.1 µM | > 66.1 µM | –
C=Cc1nc2nnc(CCCCCCCCc3nnc4nc(C=C)[nH]n34)n2[nH]1 | > 200 µM | 40.7 µM | –
CC(=O)c1c(O)cc2c(c1O)C1CC(C)(CCC1=C(C)C)O2 (stereo not drawn) | > 186 µM | 26.3 µM | –
C=C(CCCCOCOCCOC)[Si](C)(C)C | > 138 µM | > 138 µM | –
Cc1ccc(NC(=S)Nc2c(C)n(C)n(-c3ccccc3)c2=O)cc1 | > 200 µM | > 200 µM | –
CNC=O | > 200 µM | > 200 µM | –
O=c1cc2[nH]cnc2c(O)[nH]1 | > 89.1 µM | > 89.1 µM | –
CC(=O)c1sc(-c2nc(C)c(C(=O)/C=C\c3ccc(/C=C\C(=O)c4sc(-c5nc(C)c(C(C)=O)s5)nc4C)cc3)s2)nc1C | > 28.2 µM | > 28.2 µM | –
Cc1nn(C(=O)c2ccc(Cl)cc2)c2c1C(c1ccc([N+](=O)[O-])cc1)SC(N)=N2 (stereo not drawn) | > 200 µM | 97.7 µM | –
COP1(=O)OCc2cnccc2O1 (stereo not drawn) | > 200 µM | > 200 µM | –
CC(=O)O[C@]12CCCCCC1C1(O)C(O)CCCCC12 (stereo partly drawn) | > 200 µM | > 200 µM | –
O=C1C2=C(c3ccccc31)C(c1cccc(Cl)c1)NC(=S)N2 (stereo not drawn) | > 57.5 µM | 35.5 µM | –
O=P(Nc1ccc(Cl)cc1)(Oc1ccccc1)N(CCCl)CCCl (stereo not drawn) | > 17.8 µM | 8.71 µM | –
c1ccc(CNN2CN(NCc3ccccc3)CN(NCc3ccccc3)C2)cc1 | > 100 µM | 70.8 µM | –
CNc1ccc2ncccc2c1[N+](=O)[O-] | > 46.8 µM | > 46.8 µM | –
CCC1CN2CCc3cc(OC)c(OC)cc3C2CC1CC1c2cc(OC)c(OC)cc2CCN1C(=O)C1CCCN1 (stereo not drawn) | – | – | inactive
Cc1noc(NS(=O)(=O)c2ccc(NC(=S)/N=C/C(C(=O)c3ccccc3)=C(\O)c3ccccc3)cc2)c1C | > 200 µM | 120 µM | –
Cc1cccc2c(N)c3cccc(C(=O)NCCN(C)C)c3nc12 | > 200 µM | 0.0631 µM | –
Cc1ccc(O)c(C(c2cc(C)ccc2O)c2cc([N+](=O)[O-])ccc2O)c1 | – | – | inactive
COc1nc(C)nc2sc3c(c12)CCCC3 | > 100 µM | > 100 µM | –
CC(=O)Nc1ccc2nc(-c3ccccn3)c(-c3ccccn3)nc2c1 | 27.5 µM | > 200 µM | –
O=C(Nc1cccc(O)c1)C(=O)C1C(=O)NC(=S)NC1=O | > 813 µM | > 813 µM | –

Compound | EC50 | IC50 | outcome
COc1cc(C[C@H]2C(=O)OC[C@@H]2C(=O)c2ccc(OC(C)C)c(O)c2)cc(OC)c1O | > 2 µM | 0.49 µM | –
OCCN1OCCCC1c1ccccc1 (stereo not drawn) | > 1200 µM | > 1200 µM | –
CSc1nc(Cl)c2c(n1)Sc1nc3ccccc3n1N=C2 | > 100 µM | 55 µM | –
CC1(C)CCCC2(C)C3C(O)CC2(C)C(O)C31 (stereo not drawn) | > 282 µM | > 282 µM | –
CCC/C(=N\NC(=S)N1CCN(c2ccccn2)CC1)c1ccccn1 | > 19.5 µM | 0.011 µM | –
COc1cc(/C=C2\Sc3scc(-c4cccc([N+](=O)[O-])c4)[n+]3C2=O)cc(OC)c1OC | > 200 µM | 9.77 µM | –
N.N.N.O=[N+]([O-])[O-].O=[N+]([O-])[O-].O=[N+]([O-])[O-].O=[N+]([O-])[O-].[Co+3] | > 692 µM | 117 µM | –
Nc1nc(O)c(N=O)c(=O)[nH]1 | > 200 µM | > 200 µM | –
CC(=O)[C@H]1CC[C@H]2[C@@H]3C=CC4=CC(=O)CC[C@@]4(C)[C@@H]3CC[C@]12C | > 126 µM | 79.4 µM | –
COc1ccc([N+](=O)[O-])c2c(NCC(O)CO)ccnc12 (stereo not drawn) | > 200 µM | 29.5 µM | –
COc1ccc(P2(=S)Oc3ccccc3-c3ccccc3O2)cc1 | > 0.2 µM | 0.0631 µM | –
O=C(CCCc1cccc2[nH]c3c(c12)CN(Cc1ccccc1)CC3)c1ccc(F)cc1 | > 200 µM | 14.5 µM | –
O=C(/C(=C\C(=O)c1cccs1)c1ccsc1)c1ccc(Br)cc1 | – | – | inactive
O=C(CC(C(=O)c1ccsc1)c1cccs1)c1ccsc1 (stereo not drawn) | > 200 µM | 15.5 µM | –
Cc1cc(S(=O)(=O)n2ccnc2Oc2ccccc2N)c(SSc2cc(Cl)c(C)cc2S(=O)(=O)n2ccnc2Oc2ccccc2N)cc1Cl | > 100 µM | 19.5 µM | –
COc1cc(-c2cc(=O)c3c(C)cc(O)cc3o2)cc(OC)c1OC | 112 µM | > 200 µM | –
NNc1nnc(-c2ccccc2)nc1Cc1ccccc1 | > 25.7 µM | 13.8 µM | –
CC(C)=CCC[C@@H](C)C1=C(Nc2ccccc2)C(O)=C(C)C(=O)C1=O | > 200 µM | 3.02 µM | –
O=S1c2ccccc2N=C(c2cccs2)CC1c1ccccc1O (stereo not drawn) | > 10.7 µM | > 10.7 µM | –
NC(=O)c1cn(Cc2ccccc2)c(=O)n1Cc1ccccc1 | > 117 µM | > 117 µM | –
COc1cc2cnc3c4cc(O)ccc4ccc3c2cc1OC | > 85.1 µM | 44.7 µM | –
C/C(=N\NC(=O)CC(=O)Nc1ccccc1Cl)c1cc2cc(N=Nc3ccccc3Cl)ccc2oc1=O | > 18.6 µM | > 18.6 µM | –
COc1ccccc1C1OC2=C(Nc3ccccc3N2)C1=O (stereo not drawn) | > 170 µM | > 170 µM | –

Compound | EC50 | IC50 | outcome
Cn1cnc([N+](=O)[O-])c1Sc1nnc(C(F)(F)F)n1C | > 813 µM | 4.27 µM | –
O=C1NCc2c1[nH]c(=O)[nH]c2=O | > 155 µM | > 155 µM | –
CCOC(=O)CCCN(c1[nH]c(C)c(C)c1C#N)S(=O)(=O)c1ccc(C)cc1 | > 200 µM | 81.3 µM | –
CP(C)(=S)P(C)(C)=S | > 200 µM | 110 µM | –
N#CC1=C2Oc3ccccc3N2C(c2ccccc2)C(C#N)=C1N (stereo not drawn) | > 200 µM | > 200 µM | –
COc1ccc(C(C(N)=O)N2CCCCC2)cc1 (stereo not drawn) | > 200 µM | > 200 µM | –
O=CC(=O)c1ccccc1 | – | – | inactive
O=C1NC(=O)/C(=C\c2cccc([N+](=O)[O-])c2)N1 | > 200 µM | 158 µM | –
O=C(O)c1ccc([N+](=O)[O-])c2c(=O)c3ccccc3[nH]c12 | – | – | inactive
CN1C(C(=O)Nc2nccs2)=C(O)c2ccccc2S1(=O)=O | > 200 µM | 191 µM | –
Nc1ccc2c(c1)S(=O)(=O)c1cc(N)ccc1-2 | > 200 µM | > 200 µM | –
CSc1c(C#N)c(=O)n(N)c2n[nH]c(C)c12 | > 200 µM | > 200 µM | –
COC(=O)C1CCC(=O)N1C(c1ccccc1)c1ccc(OC)c(OC)c1 (stereo not drawn) | > 200 µM | > 200 µM | –
O=C(Cn1cc(I)c(C(=O)NCC(O)CO)n1)NCC(O)CO (stereo not drawn) | > 562 µM | > 562 µM | –
CC1SC(C)SC(C(C)(C)O)S1 (stereo not drawn) | > 32.4 µM | > 32.4 µM | –
CC(=O)Cc1cc(=O)c2c(C)cc(O)c(C3OC(CO)C(O)C(O)C3O)c2o1 (stereo not drawn) | 31.6 µM | 316 µM | –
CCN=C(NC(=O)c1ccc(Cl)cc1)SCSC(=NCC)NC(=O)c1ccc(Cl)cc1 | > 200 µM | 72.4 µM | –
CC1=NN(C(=O)CC(=O)NC(=O)/C=C\c2ccccc2)C(=O)C1N=Nc1ccc([N+](=O)[O-])cc1 (stereo not drawn) | – | – | inactive
CNc1cc2oc(=O)cc(C)c2cc1C | > 67.6 µM | > 67.6 µM | –
CCCCOC(=O)c1c2nc3c(C(=O)OCCCC)ccc(C)c3oc-2c(C)c(=O)c1NC(C)=O | > 151 µM | 24.5 µM | –
Cc1ccccc1CC1(Br)CC(C)(C)c2ccccc2C1=O (stereo not drawn) | > 200 µM | 29.5 µM | –
CC1CC(=O)C(CC(=O)O)[C@H]1C(C(=O)C(=O)Nc1cc(Cl)ccc1Cl)[N+](=O)[O-] (stereo partly drawn) | – | – | inactive
Cc1cc(=O)n2nc(SCc3ccccc3)sc2n1 | > 200 µM | 81.3 µM | –
